Assay results published in PubChem BioAssay (NCI).
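Where inhibition never reached the appropriate level, the endpoint shown equals the highest concentration tested. Otherwise, values were interpolated linearly from a five-concentration, 48-hour dose response in 96-well plates. GI50: concentration for 50% inhibition of growth. TGI: concentration producing complete growth inhibition.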

How the values were obtained:
Assay in all cases: NCI-60 cell line screen, 48 h
SK-MEL-2 melanoma = tested on: SK-MEL-2 melanoma
HCC-2998 colon = tested on: HCC-2998 colon
OVCAR-8 ovarian = tested on: OVCAR-8 ovarian
RPMI-8226 leukemia = tested on: RPMI-8226 leukemia
CCRF-CEM leukemia = tested on: CCRF-CEM leukemia
UO-31 renal = tested on: UO-31 renal
PC-3 prostate = tested on: PC-3 prostate
OVCAR-4 ovarian = tested on: OVCAR-4 ovarian
UACC-62 melanoma = tested on: UACC-62 melanoma
MDA-MB-435 = tested on: MDA-MB-435
NCI-H522 lung = tested on: NCI-H522 lung
SK-MEL-5 melanoma = tested on: SK-MEL-5 melanoma
DU-145 prostate = tested on: DU-145 prostate
SF-295 CNS = tested on: SF-295 CNS
OVCAR-3 ovarian = tested on: OVCAR-3 ovarian
TK-10 renal = tested on: TK-10 renal
SF-539 CNS = tested on: SF-539 CNS
SN12C renal = tested on: SN12C renal
SW-620 colon = tested on: SW-620 colon
UACC-257 melanoma = tested on: UACC-257 melanoma
MCF7 breast = tested on: MCF7 breast
OVCAR-5 ovarian = tested on: OVCAR-5 ovarian
IGROV1 ovarian = tested on: IGROV1 ovarian
M14 melanoma = tested on: M14 melanoma
ACHN renal = tested on: ACHN renal
NCI-H23 lung = tested on: NCI-H23 lung
U251 CNS = tested on: U251 CNS
A549 NSCLC = tested on: A549 NSCLC
HOP-92 NSCLC = tested on: HOP-92 NSCLC
SK-MEL-28 melanoma = tested on: SK-MEL-28 melanoma
CAKI-1 renal = tested on: CAKI-1 renal
T-47D breast = tested on: T-47D breast
HOP-62 NSCLC = tested on: HOP-62 NSCLC
COLO 205 colon = tested on: COLO 205 colon
HCT-116 colon = tested on: HCT-116 colon
A498 renal = tested on: A498 renal
SK-OV-3 ovarian = tested on: SK-OV-3 ovarian
BT-549 breast = tested on: BT-549 breast
SNB-75 CNS = tested on: SNB-75 CNS
HCT-15 colon = tested on: HCT-15 colon
NCI-H226 lung = tested on: NCI-H226 lung
MOLT-4 leukemia = tested on: MOLT-4 leukemia
SNB-19 CNS = tested on: SNB-19 CNS
NCI/ADR-RES ovarian = tested on: NCI/ADR-RES ovarian
HS 578T breast = tested on: HS 578T breast
HT29 colon = tested on: HT29 colon
RXF 393 renal = tested on: RXF 393 renal
MDA-MB-231 breast = tested on: MDA-MB-231 breast
NCI-H460 lung = tested on: NCI-H460 lung
SF-268 CNS = tested on: SF-268 CNS
LOX IMVI melanoma = tested on: LOX IMVI melanoma
KM12 colon = tested on: KM12 colon
K-562 leukemia = tested on: K-562 leukemia
EKVX NSCLC = tested on: EKVX NSCLC
HL-60(TB) leukemia = tested on: HL-60(TB) leukemia

Work on `COc1ccccc1NC(=O)c1ccc(NC2=C(Cl)C(=O)N(Cc3ccccc3)C2=O)cc1` yielded a GI50 (SK-MEL-2 melanoma) of 11.2 µM, a TGI (SK-MEL-2 melanoma) of 29.9 µM and a GI50 (HCC-2998 colon) of 4.2 µM. For the same compound, the TGI (HCC-2998 colon) was 15.4 µM, the GI50 (OVCAR-8 ovarian) was 2.27 µM and the TGI (OVCAR-8 ovarian) was 32.9 µM. The GI50 (RPMI-8226 leukemia) was 0.0257 µM, the TGI (RPMI-8226 leukemia) was 0.363 µM and the GI50 (CCRF-CEM leukemia) was 0.0777 µM. For the same compound, the TGI (CCRF-CEM leukemia) was greater than 100 µM, the GI50 (UO-31 renal) was 1.7 µM and the TGI (UO-31 renal) was 3.2 µM. It also gave a GI50 (PC-3 prostate) of 0.976 µM, a TGI (PC-3 prostate) of 5.75 µM and a GI50 (OVCAR-4 ovarian) of 29.3 µM. It also gave a TGI (OVCAR-4 ovarian) greater than 100 µM, a GI50 (UACC-62 melanoma) of 0.877 µM and a TGI (UACC-62 melanoma) of 24.5 µM. The GI50 (MDA-MB-435) was 11.2 µM, the TGI (MDA-MB-435) was 40.5 µM and the GI50 (NCI-H522 lung) was 5.09 µM. It also gave a TGI (NCI-H522 lung) of 22.6 µM, a GI50 (SK-MEL-5 melanoma) of 16 µM and a TGI (SK-MEL-5 melanoma) of 45.3 µM. It also gave a GI50 (DU-145 prostate) of 2.01 µM, a TGI (DU-145 prostate) of 28 µM and a GI50 (SF-295 CNS) of 18.2 µM. The TGI (SF-295 CNS) was 63.4 µM, the GI50 (OVCAR-3 ovarian) was 10.2 µM and the TGI (OVCAR-3 ovarian) was 22.6 µM. The GI50 (TK-10 renal) was 40.3 µM, the TGI (TK-10 renal) was 89.1 µM and the GI50 (SF-539 CNS) was 16.6 µM. The TGI (SF-539 CNS) was 41.2 µM, the GI50 (SN12C renal) was 10.3 µM and the TGI (SN12C renal) was 39.5 µM. For the same compound, the GI50 (SW-620 colon) was 5.29 µM, the TGI (SW-620 colon) was greater than 100 µM and the GI50 (UACC-257 melanoma) was 0.228 µM. It also gave a TGI (UACC-257 melanoma) of 21.9 µM, a GI50 (MCF7 breast) of 7.77 µM and a TGI (MCF7 breast) of 54 µM. The GI50 (OVCAR-5 ovarian) was 44.1 µM, the TGI (OVCAR-5 ovarian) was greater than 100 µM and the GI50 (IGROV1 ovarian) was 1.36 µM. For the same compound, the TGI (IGROV1 ovarian) was 4.29 µM, the GI50 (M14 melanoma) was 17.6 µM and the TGI (M14 melanoma) was 40.4 µM. It also gave a GI50 (ACHN renal) of 33.4 µM, a TGI (ACHN renal) greater than 100 µM and a GI50 (NCI-H23 lung) of 12 µM. For the same compound, the TGI (NCI-H23 lung) was 25.9 µM, the GI50 (U251 CNS) was 29.3 µM and the TGI (U251 CNS) was greater than 100 µM. The GI50 (A549 NSCLC) was 10.5 µM, the TGI (A549 NSCLC) was 90.4 µM and the GI50 (HOP-92 NSCLC) was 3.68 µM. The TGI (HOP-92 NSCLC) was 45.4 µM, the GI50 (SK-MEL-28 melanoma) was 30.3 µM and the TGI (SK-MEL-28 melanoma) was greater than 100 µM. For the same compound, the GI50 (CAKI-1 renal) was 1.48 µM, the TGI (CAKI-1 renal) was 2.95 µM and the GI50 (T-47D breast) was 41.2 µM. It also gave a TGI (T-47D breast) greater than 100 µM, a GI50 (HOP-62 NSCLC) of 26.8 µM and a TGI (HOP-62 NSCLC) of 63.5 µM. For the same compound, the GI50 (COLO 205 colon) was 44.9 µM, the TGI (COLO 205 colon) was greater than 100 µM and the GI50 (HCT-116 colon) was 12.9 µM. It also gave a TGI (HCT-116 colon) of 36.2 µM, a GI50 (A498 renal) of 27.8 µM and a TGI (A498 renal) of 86.3 µM. For the same compound, the GI50 (SK-OV-3 ovarian) was greater than 100 µM, the TGI (SK-OV-3 ovarian) was greater than 100 µM and the GI50 (BT-549 breast) was 1.46 µM. The TGI (BT-549 breast) was 11 µM, the GI50 (SNB-75 CNS) was 37.7 µM and the TGI (SNB-75 CNS) was greater than 100 µM. It also gave a GI50 (HCT-15 colon) of 14.7 µM, a TGI (HCT-15 colon) of 38.8 µM and a GI50 (NCI-H226 lung) of 6.84 µM. The TGI (NCI-H226 lung) was 32.9 µM, the GI50 (MOLT-4 leukemia) was 3.31 µM and the TGI (MOLT-4 leukemia) was greater than 100 µM. For the same compound, the GI50 (SNB-19 CNS) was 48.9 µM, the TGI (SNB-19 CNS) was greater than 100 µM and the GI50 (NCI/ADR-RES ovarian) was 15.2 µM. The TGI (NCI/ADR-RES ovarian) was 48.1 µM, the GI50 (HS 578T breast) was 37.5 µM and the TGI (HS 578T breast) was greater than 100 µM. The GI50 (HT29 colon) was 36.8 µM, the TGI (HT29 colon) was greater than 100 µM and the GI50 (RXF 393 renal) was 19.9 µM. For the same compound, the TGI (RXF 393 renal) was 78.8 µM, the GI50 (MDA-MB-231 breast) was 2.82 µM and the TGI (MDA-MB-231 breast) was 16.3 µM. It also gave a GI50 (NCI-H460 lung) of 33.4 µM, a TGI (NCI-H460 lung) greater than 100 µM and a GI50 (SF-268 CNS) of 25.4 µM. It also gave a TGI (SF-268 CNS) greater than 100 µM, a GI50 (LOX IMVI melanoma) of 10.3 µM and a TGI (LOX IMVI melanoma) of 35 µM. It also gave a GI50 (KM12 colon) of 26.6 µM, a TGI (KM12 colon) of 86 µM and a GI50 (K-562 leukemia) of 4.21 µM. For the same compound, the TGI (K-562 leukemia) was greater than 100 µM, the GI50 (EKVX NSCLC) was 29.1 µM and the TGI (EKVX NSCLC) was greater than 100 µM. For the same compound, the GI50 (HL-60(TB) leukemia) was 3.36 µM and the TGI (HL-60(TB) leukemia) was 43.5 µM.
